Experiments:
[1] = test system: Ascaris suum sensitized sheep; assay: allergic sheep model of asthma; assay type: in vivo
Experimental: The model is conscious, where the animals are breathing spontaneously, allowing measurement of airways bronchoconstriction and acute airway hyperresponsiveness.
Sheep which were naturally sensitized to Ascaris suum (30-40 Kg) were intubated with an endotracheal tube and a balloon catheter, positioned in the lower esophagus. Pleural pressure was estimated with the esophageal catheter, while later pressure was measured with a side-hole catheter advanced through and positioned distal to the tip of the endotracheal tube. Transpulmonary pressure differences between the trachea and pleural pressures were measured with a differential pressure transducer catheter system.
The proximal end of the endotracheal tube was connected to a Fleisch pneumotachograph in order to measure flow changes. Pulmonary resistance (RL) was calculated from pressure measurements of transpulmonary pressure, respiratory volume (from digital integration of the flow signal) and flow by the mid-flow technique. SRL was calculated as RL Vtg (Vtg=thoracic gas volume).
Aerosols generated using a disposable nebulizer, were directed into a T-piece connected to a Harvard respirator and the tracheal tube in series. The aerosol delivery was controlled using a dosimeter system, consisting of a solenoid valve and compressed air (20 psi) activated at the start of each inspiratory cycle. Aerosols were delivered in tidal volumes of 500 ml at […].
Selected compounds from the invention were dissolved as a stock solution in DMSO and diluted in saline. Animals received either, 400 μg/Kg of compound 30 min prior to challenge and 4 hours after challenge, or 400 μg/Kg of compound for 4 days with the last dose 2 hours before challenge. Ascaris suum extract was diluted in phosphate buffered saline to a concentration of 82000 protein nitrogen units/ml and delivered by aerosol over 20 min. Carbachol was dissolved in PBS to concentrations of 0.25, 0.5 1.0, 2.0, 4.0% wt/vol. Each animal served as its own control throughout the study.
Specific lung resistance (SRL) was measured every 60 min for 8 hours after antigen challenge. Airways hyperresponsiveness to carbachol was measured 24 hours after the initial challenge.

[2] = test system: passively sensitized rat mast cells (RBL-2H3); assay: antigen-induced release of hexosaminidase from RBL-2H3 cells; assay type: cell-based; details: Rattus norvegicus, RBL-2H3, 25 μM compound; antigen-induced hexosaminidase release; read-out: Percentage Inhibition (mean) RBL-2H3 Cells
Experimental: The anti-allergic effects of various polyhydroxylated steroids of the present invention were evaluated by measuring their effect on antigen-induced secretion of hexosaminidase from a passively sensitized rat mast cell line (RBL-2H3) and a murine mast cell line (MC/9). The ability of agents to inhibit the release of mast cell granule contents, e.g., histamine and hexosaminidase, is indicative of anti-allergy and/or anti-asthma activity.
Hexosaminidase is released from the mast cell granule along with histamine and other mediators during antigen challenge. RBL-2H3 and MC/9 cells were grown in culture and passively sensitized to dinitrophenol (DNP) using anti-human-DNP (IgE). Cells were incubated with each compound (25 μM) for 1 hour at 37° C. and then stimulated with 0.1 mg/ml DNP-HSA (antigen) for 15 min. Aliquots of the supernatant were removed and used to measure the amount of hexosaminidase released during challenge with the antigen. The amount of hexosaminidase present in the supernatant was determined calorimetrically by monitoring the enzymatic metabolism of p-nitrophenyl-N-acetyl-β-D-glucosaminide (p-NAG) over a period of 1 hour at 410 nm. The effect of each compound was determined as a percentage of the antigen-induced response (minus background release) obtained in the presence of DMSO alone, as set forth in Tables 2 and 3. These values were used to determine the degrees of inhibition of antigen-induced hexosaminidase release from the cells.

NF-κB = NF-κB gel shift binding assay in TPA-stimulated RBL-2H3 cells; assay type: cell-based; details: Rattus norvegicus, compound 1 μM, 2 hours preincubation, read-out: Percent Inhibition of Response to TPA (0.1 μM)
rabbit platelets = assay: PAF-induced aggregation of rabbit platelets; assay type: cell-based; details: Oryctolagus cuniculus, Platelet; 80 μM compound, 5 min preincubation; PAF-stimulated rabbit platelets (title: 0.1 nM PAF); read-out: % Inhibition at 80 μM
From the text: Within the present invention, it was discovered that the polyhydroxylated steroids as well as intermediates described in previous sections inhibited the aggregation of platelets caused by platelet activating factor (PAF). PAF is a local mediator of thrombosis and prevention of the formation of blood clots has direct implication in the treatment of thrombosis and associated cardiovascular diseases. The assay system used to evaluate the ability of compounds to inhibit the aggregation of platelets in response to exogenous stimuli is indicative of anti-thrombotic or thrombolytic activity.
Platelets were isolated from rabbit blood and prepared at a density of 2.4×10^8 cells/ml in Tyrodes buffer (pH 7.2) containing Ca^2+. Platelets were incubated with each compound for 5 min at 37° C. prior to stimulation. Platelets were stimulated with 1 nM platelet activating factor (PAF; EC75) in the presence of each of the compounds and aggregation was monitored for 5 min. Compounds were solubilized in dimethylsulfoxide (DMSO) and aggregation was measured as a percentage of the response to 1 nM PAF obtained in the presence of the appropriate concentration of DMSO. The degree of inhibition caused by each sample was calculated using the control response in the presence of DMSO equal to 100%.

[3] = 400 μg/kg/day for 4 days, inhalation, Baseline

With `C/C=C1/CCC2C3C(CC[C@]12C)[C@@]1(C)CC[C@@H](O)CC1[C@@H](O)[C@@H]3O` (stereo partly drawn) [Compound 330, 3α,6α,7β-trihydroxy-17(20)-pregnene] the “PC400 Hyperresponsiveness to carbachol” value ([1]; 400 μg/kg inhalation 30 min prior to and 4 hours after challenge, Baseline) was 26.01 ± 3.06 Breath Units, the “PC400 Hyperresponsiveness to carbachol” value ([1]; 400 μg/kg inhalation 30 min prior to and 4 hours after challenge, Post-Challenge (24 hours)) was 22.79 ± 6.11 Breath Units and the “Specific Lung Resistance” value ([1]; 400 μg/kg inhalation 30 min prior to and 4 hrs after challenge, 1 hr) was 117 ± 11 % Baseline. The “Specific Lung Resistance” value ([1]; 400 μg/kg inhalation 30 min prior to and 4 hrs after challenge, 2 hr) was 49 ± 11 % Baseline, the “Specific Lung Resistance” value ([1]; 400 μg/kg inhalation 30 min prior to and 4 hrs after challenge, 3 hr) was 32 ± 6 % Baseline and the “Specific Lung Resistance” value ([1]; 400 μg/kg inhalation 30 min prior to and 4 hrs after challenge, 4 hr) was 20 ± 6 % Baseline. For the same compound, the “Specific Lung Resistance” value ([1]; 400 μg/kg inhalation 30 min prior to and 4 hrs after challenge, 5 hr) was 14 ± 4 % Baseline, the “Specific Lung Resistance” value ([1]; 400 μg/kg inhalation 30 min prior to and 4 hrs after challenge, 6 hr) was 14 ± 5 % Baseline and the “Specific Lung Resistance” value ([1]; 400 μg/kg inhalation 30 min prior to and 4 hrs after challenge, 6.5 hr) was 18 ± 6 % Baseline. The “Specific Lung Resistance” value ([1]; 400 μg/kg inhalation 30 min prior to and 4 hrs after challenge, 7 hr) was 10 ± 2 % Baseline, the “Specific Lung Resistance” value ([1]; 400 μg/kg inhalation 30 min prior to and 4 hrs after challenge, 7.5 hr) was 17 ± 8 % Baseline and the “Specific Lung Resistance” value ([1]; 400 μg/kg inhalation 30 min prior to and 4 hrs after challenge, 8 hr) was 5 ± 3 % Baseline. The “Specific Lung Resistance” value ([1]; 400 μg/kg inhalation 30 min prior to and 4 hrs after challenge, Baseline) was 2 ± 5 % Baseline, the “Specific Lung Resistance” value ([1]; 400 μg/kg inhalation 30 min prior to and 4 hrs after challenge, Challenge (0)) was 268 ± 35 % Baseline and the “Specific Lung Resistance” value ([1]; 400 μg/kg inhalation 30 min prior to and 4 hrs after challenge, −0.5 hr) was 0 ± 4 % Baseline. The “Specific Lung Resistance” value ([1]; 400 μg/kg/day for 4 days, inhalation, 1 hr) was 34.00 ± 10.75 % Baseline, the “Specific Lung Resistance” value ([1]; 400 μg/kg/day for 4 days, inhalation, 2 hr) was 11.50 ± 6.18 % Baseline and the “Specific Lung Resistance” value ([1]; 400 μg/kg/day for 4 days, inhalation, 3 hr) was −15.00 ± 37.67 % Baseline. The “Specific Lung Resistance” value ([1]; 400 μg/kg/day for 4 days, inhalation, 4 hr) was 4.00 ± 1.78 % Baseline, the “Specific Lung Resistance” value ([1]; 400 μg/kg/day for 4 days, inhalation, 5 hr) was −4.50 ± 4.17 % Baseline and the “Specific Lung Resistance” value ([1]; 400 μg/kg/day for 4 days, inhalation, 6 hr) was 7.75 ± 9.75 % Baseline. The “Specific Lung Resistance” value ([1]; 400 μg/kg/day for 4 days, inhalation, 6.5 hr) was 5.50 ± 4.87 % Baseline, the “Specific Lung Resistance” value ([1]; 400 μg/kg/day for 4 days, inhalation, 7 hr) was 10.75 ± 4.91 % Baseline and the “Specific Lung Resistance” value ([1]; 400 μg/kg/day for 4 days, inhalation, 7.5 hr) was 4.00 ± 2.35 % Baseline. The “Specific Lung Resistance” value ([1]; 400 μg/kg/day for 4 days, inhalation, 8 hr) was 3.25 ± 4.73 % Baseline, the “PC400 Hyperresponsiveness to carbachol” value [1, 3] was 21.26 ± 2.75 Breath Units and the “Specific Lung Resistance” value [1, 3] was 5.25 ± 4.50 % Baseline. The “Specific Lung Resistance” value ([1]; 400 μg/kg/day for 4 days, inhalation, Challenge (0)) was 126.00 ± 19.11 % Baseline, the “PC400 Hyperresponsiveness to carbachol” value ([1]; 400 μg/kg/day for 4 days, inhalation, Post-Challenge (24 hours)) was 21.21 ± 3.10 Breath Units and the “Specific Lung Resistance” value ([1]; 400 μg/kg/day for 4 days, inhalation, −0.5 hr) was −3.75 ± 4.29 % Baseline. The inhibition at 25 µM [2] was 59%, the inhibition at 1 µM (NF-κB) was 66% and the inhibition at 80 µM (rabbit platelets) was 20.9%.
